Measurements: PubChem BioAssay AID280 (DTP/NCI, 2004)
Values joined by “and” are separate entries in the source; they are usually repeats but may differ in a detail not shown here. Equal entries are not always repeated. Inconclusive results and toxic doses are left out.

System: nude mice, LOX melanoma ip, survival T/C
Assay: NCI In Vivo Anticancer Drug Screen. Data for tumor model Human Amelanotic Melanoma (LOX) (intraperitoneal) in NU/NU BALB/C (nude) mice
Conditions: endpoint: median survival time, schedule: Q04DX003 (ip), higher = longer survival
Description: The antitumor activity of compounds was measured in mice bearing transplantable tumors. Survival or tumor size were measured and the results are expressed as the measurement made in the treated group (T) divided by the measurement made in the vehicle treated control group (C). The tumor model used in this assay is Human Amelanotic Melanoma (LOX) (intraperitoneal) in NU/NU BALB/C (nude) mice

[1] = dose: 37.5 mg/kg/injection, vehicle: saline with Tween-80
[2] = dose: 75.0 mg/kg/injection, vehicle: saline with Tween-80
[3] = dose: 150.0 mg/kg/injection, vehicle: saline with Tween-80
[4] = dose: 33.7 mg/kg/injection, vehicle: saline
[5] = dose: 67.5 mg/kg/injection, vehicle: saline
[6] = dose: 135.0 mg/kg/injection, vehicle: saline
[7] = dose: 75.0 mg/kg/injection, vehicle: Klucel (hydroxypropylcellulose) (HPC)
[8] = dose: 150.0 mg/kg/injection, vehicle: Klucel (hydroxypropylcellulose) (HPC)
[9] = dose: 300.0 mg/kg/injection, vehicle: saline with Tween-80
[10] = dose: 60.0 mg/kg/injection, vehicle: saline with Tween-80
[11] = dose: 50.0 mg/kg/injection, vehicle: saline with Tween-80
[12] = dose: 200.0 mg/kg/injection, vehicle: saline with Tween-80

SMILES: Cn1c2ccccc2c2ccc3c(c21)C(=O)C=CC3=O
- T/C (dose: 9.38 mg/kg/injection, vehicle: saline with Tween-80): 90 % of control
- T/C (dose: 18.75 mg/kg/injection, vehicle: saline with Tween-80): 94 % of control
- T/C [1]: 88 % of control
- T/C [2]: 112 % of control
- T/C [3]: 100 % of control

SMILES: CCCCCCn1c(SC)nc(COC(=O)NC)c1COC(=O)NC
- T/C [4]: 118 % of control
- T/C (dose: 40.1 mg/kg/injection, vehicle: water): 97 % of control
- T/C (dose: 60.1 mg/kg/injection, vehicle: water): 87 % of control
- T/C [5]: 171 % of control
- T/C (dose: 90.0 mg/kg/injection, vehicle: water): 97 % of control
- T/C [6]: 208 % of control
- T/C (dose: 135.0 mg/kg/injection, vehicle: water): 86 % of control
- T/C (dose: 202.4 mg/kg/injection, vehicle: water): 99 % of control

SMILES: CN(C)C(=O)SC1=C(c2c(Cl)cccc2Cl)C(=O)c2ccccc21
- T/C [7]: 103 % of control and 110 % of control
- T/C [8]: 112 % of control and 97 % of control
- T/C (dose: 300.0 mg/kg/injection, vehicle: Klucel (hydroxypropylcellulose) (HPC)): 109 % of control and 92 % of control
- T/C (dose: 600.0 mg/kg/injection, vehicle: Klucel (hydroxypropylcellulose) (HPC)): 110 % of control and 123 % of control
- T/C (dose: 1200.0 mg/kg/injection, vehicle: Klucel (hydroxypropylcellulose) (HPC)): 105 % of control

SMILES: OCC1OC(n2cnc3c2NC=NC[C@H]3O)CC1O (some centres not stated)
- T/C (dose: 2.0 mg/kg/injection, vehicle: saline): 102 % of control
- T/C (dose: 4.0 mg/kg/injection, vehicle: saline): 94 % of control
- T/C (dose: 8.0 mg/kg/injection, vehicle: saline): 96 % of control
- T/C (dose: 16.0 mg/kg/injection, vehicle: saline): 100 % of control

SMILES: COc1ccccc1/C=C/C(=O)c1ccccc(=O)c1O
- T/C (dose: 9.38 mg/kg/injection, vehicle: Klucel (hydroxypropylcellulose) (HPC)): 98 % of control
- T/C (dose: 18.75 mg/kg/injection, vehicle: Klucel (hydroxypropylcellulose) (HPC)): 89 % of control
- T/C (dose: 37.5 mg/kg/injection, vehicle: Klucel (hydroxypropylcellulose) (HPC)): 98 % of control
- T/C [7]: 110 % of control
- T/C [8]: 103 % of control

SMILES: N#Cc1c(-c2ccc(F)cc2)c(-c2ccc(F)cc2)nn(CCO)c1=O
- T/C (dose: 12.5 mg/kg/injection, vehicle: distilled water + Tween-80): 98 % of control
- T/C (dose: 25.0 mg/kg/injection, vehicle: distilled water + Tween-80): 111 % of control
- T/C (dose: 50.0 mg/kg/injection, vehicle: distilled water + Tween-80): 115 % of control
- T/C (dose: 72.0 mg/kg/injection, vehicle: distilled water + Tween-80): 110 % of control
- T/C (dose: 100.0 mg/kg/injection, vehicle: distilled water + Tween-80): 122 % of control
- T/C (dose: 120.0 mg/kg/injection, vehicle: distilled water + Tween-80): 124 % of control
- T/C (dose: 200.0 mg/kg/injection, vehicle: distilled water + Tween-80): 120 % of control
- T/C (dose: 333.33 mg/kg/injection, vehicle: distilled water + Tween-80): 166 % of control
- T/C (dose: 555.55 mg/kg/injection, vehicle: distilled water + Tween-80): 212 % of control

SMILES: CCCCCCSc1nc(COC(=O)NC)c(COC(=O)NC)n1C
- T/C (dose: 16.85 mg/kg/injection, vehicle: saline): 102 % of control
- T/C [4]: 90 % of control
- T/C [5]: 93 % of control
- T/C [6]: 107 % of control
- T/C (dose: 270.0 mg/kg/injection, vehicle: saline): 123 % of control

SMILES: c1ccc(OCC2CO2)c(OCC2CO2)c1 (configuration not stated)
- T/C [1]: 118 % of control
- T/C [2]: 109 % of control
- T/C [9]: 265 % of control

SMILES: C=COC(=O)C(Cc1ccccc1)NC(=O)OCc1ccccc1 (configuration not stated)
- T/C (dose: 7.5 mg/kg/injection, vehicle: saline with Tween-80): 97 % of control
- T/C (dose: 15.0 mg/kg/injection, vehicle: saline with Tween-80): 101 % of control
- T/C (dose: 30.0 mg/kg/injection, vehicle: saline with Tween-80): 105 % of control
- T/C [10]: 95 % of control
- T/C [2]: 89 % of control
- T/C (dose: 120.0 mg/kg/injection, vehicle: saline with Tween-80): 104 % of control

SMILES: NC(=O)c1cc(Cl)nc2nc(Cl)nc(N)c12
- T/C [3]: 92 % of control
- T/C [9]: 111 % of control
- T/C (dose: 600.0 mg/kg/injection, vehicle: saline with Tween-80): 94 % of control

SMILES: O=C1C=CC(=CC=C2C=CN(CCCCCCCCCCCO)C=C2)C=C1
- T/C (dose: 6.25 mg/kg/injection, vehicle: saline with Tween-80): 107 % of control
- T/C (dose: 12.5 mg/kg/injection, vehicle: saline with Tween-80): 100 % of control
- T/C (dose: 36.0 mg/kg/injection, vehicle: saline with Tween-80): 109 % of control and 110 % of control
- T/C [11]: 117 % of control
- T/C [10]: 116 % of control and 120 % of control
- T/C [12]: 159 % of control

SMILES: c1cn[nH]c1
- T/C (dose: 75.0 mg/kg/injection, vehicle: saline): 109 % of control
- T/C (dose: 150.0 mg/kg/injection, vehicle: saline): 107 % of control

SMILES: C=Cc1cc(OC)c2c(c1)c(=O)oc1c2cc(OC)c2c(O)ccc(C3OC(C)C(O)C(C)(O)C3O)c21 (configuration not stated)
- T/C (dose: 600.0 mg/kg/injection, vehicle: DMSO): 86 % of control

SMILES: NC(Cc1ccc(N(CCCl)Cc2ccccc2)cc1)C(=O)O (configuration not stated)
- T/C (dose: 25.0 mg/kg/injection, vehicle: saline with Tween-80): 107 % of control
- T/C [11]: 124 % of control
- T/C [12]: 158 % of control and 163 % of control

SMILES: COc1c(O)cc2c(c1OC)-c1ccc(SC)c(=O)cc1C(NC(C)=O)CC2 (configuration not stated)
- T/C (dose: 4.0 mg/kg/injection, vehicle: other): 114 % of control
- T/C (dose: 5.0 mg/kg/injection, vehicle: Klucel (hydroxypropylcellulose) (HPC)): 151 % of control and 252 % of control
- T/C (dose: 5.9 mg/kg/injection, vehicle: other): 111 % of control and 116 % of control
- T/C (dose: 8.9 mg/kg/injection, vehicle: other): 117 % of control
- T/C (dose: 10.0 mg/kg/injection, vehicle: Klucel (hydroxypropylcellulose) (HPC)): 151 % of control and 305 % of control
- T/C (dose: 20.0 mg/kg/injection, vehicle: other): 151 % of control and 156 % of control

SMILES: COc1cc2c(c3c1c(=O)c1ccccc1n3C)C=CC(C)(C)O2
- T/C (dose: 12.5 mg/kg/injection, vehicle: Klucel (hydroxypropylcellulose) (HPC)): 104 % of control
- T/C (dose: 25.0 mg/kg/injection, vehicle: Klucel (hydroxypropylcellulose) (HPC)): 107 % of control and 97 % of control
- T/C (dose: 50.0 mg/kg/injection, vehicle: Klucel (hydroxypropylcellulose) (HPC)): 107 % of control
- T/C (dose: 100.0 mg/kg/injection, vehicle: Klucel (hydroxypropylcellulose) (HPC)): 87 % of control

SMILES: CC[C@@]1(O)C(=O)OCc2c1cc1n(c2=O)Cc2cc3c(N)cccc3nc2-1
- T/C (dose: 0.5 mg/kg/injection, vehicle: saline with Tween-80): 213 % of control
- T/C (dose: 0.86 mg/kg/injection, vehicle: saline with Tween-80): 314 % of control
- T/C (dose: 1.0 mg/kg/injection, vehicle: saline with Tween-80): 327 % of control
- T/C (dose: 1.44 mg/kg/injection, vehicle: saline with Tween-80): 314 % of control
- T/C (dose: 2.0 mg/kg/injection, vehicle: saline with Tween-80): 327 % of control
- T/C (dose: 2.4 mg/kg/injection, vehicle: saline with Tween-80): 314 % of control
- T/C (dose: 4.0 mg/kg/injection, vehicle: saline with Tween-80): 314 % of control and 327 % of control
